In patent EP3263567A1, “CARBOXAMIDE-SUBSTITUTED PYRAZOLES AND TRI(HETERO)ARYL-PYRAZOLES FOR USE IN METHODS OF TREATING AND / OR PREVENTING CARDIOVASCULAR DISEASES AND / OR COMORBIDITIES THEREOF” (AiCuris Anti-infective Cures GmbH, priority 2016, dated 2018):
≈ marks a conversion by molar mass, not a printed value.

Key:
[1] = Solubility of compound A; type: physicochemical; details: for solubility: aqueous media
[2] = in vivo; details: both, Beagle, dog, po, 30 mg/kg
Description: A single oral dose of 30 or 100 mg/kg was applied to dogs. Pharmacokinetic parameters were assessed and compared.
Male and female Beagle dogs.
Plasma concentrations were obtained by LC-MS/MS measurements.

[3] = target: T1, HCN4 (Homo sapiens, UniProt Q9Y3Q4); test: Whole-cell patch-clamp, HCN4 currents in stably transfected CHO cells; type: cell-based; parameters: expressed in transfected cells; host or cells: CHO (ATCC CCL-61), stably transfected; selection with Hygromycin and Geneticin
T1 sequence (Q9Y3Q4 1-1203): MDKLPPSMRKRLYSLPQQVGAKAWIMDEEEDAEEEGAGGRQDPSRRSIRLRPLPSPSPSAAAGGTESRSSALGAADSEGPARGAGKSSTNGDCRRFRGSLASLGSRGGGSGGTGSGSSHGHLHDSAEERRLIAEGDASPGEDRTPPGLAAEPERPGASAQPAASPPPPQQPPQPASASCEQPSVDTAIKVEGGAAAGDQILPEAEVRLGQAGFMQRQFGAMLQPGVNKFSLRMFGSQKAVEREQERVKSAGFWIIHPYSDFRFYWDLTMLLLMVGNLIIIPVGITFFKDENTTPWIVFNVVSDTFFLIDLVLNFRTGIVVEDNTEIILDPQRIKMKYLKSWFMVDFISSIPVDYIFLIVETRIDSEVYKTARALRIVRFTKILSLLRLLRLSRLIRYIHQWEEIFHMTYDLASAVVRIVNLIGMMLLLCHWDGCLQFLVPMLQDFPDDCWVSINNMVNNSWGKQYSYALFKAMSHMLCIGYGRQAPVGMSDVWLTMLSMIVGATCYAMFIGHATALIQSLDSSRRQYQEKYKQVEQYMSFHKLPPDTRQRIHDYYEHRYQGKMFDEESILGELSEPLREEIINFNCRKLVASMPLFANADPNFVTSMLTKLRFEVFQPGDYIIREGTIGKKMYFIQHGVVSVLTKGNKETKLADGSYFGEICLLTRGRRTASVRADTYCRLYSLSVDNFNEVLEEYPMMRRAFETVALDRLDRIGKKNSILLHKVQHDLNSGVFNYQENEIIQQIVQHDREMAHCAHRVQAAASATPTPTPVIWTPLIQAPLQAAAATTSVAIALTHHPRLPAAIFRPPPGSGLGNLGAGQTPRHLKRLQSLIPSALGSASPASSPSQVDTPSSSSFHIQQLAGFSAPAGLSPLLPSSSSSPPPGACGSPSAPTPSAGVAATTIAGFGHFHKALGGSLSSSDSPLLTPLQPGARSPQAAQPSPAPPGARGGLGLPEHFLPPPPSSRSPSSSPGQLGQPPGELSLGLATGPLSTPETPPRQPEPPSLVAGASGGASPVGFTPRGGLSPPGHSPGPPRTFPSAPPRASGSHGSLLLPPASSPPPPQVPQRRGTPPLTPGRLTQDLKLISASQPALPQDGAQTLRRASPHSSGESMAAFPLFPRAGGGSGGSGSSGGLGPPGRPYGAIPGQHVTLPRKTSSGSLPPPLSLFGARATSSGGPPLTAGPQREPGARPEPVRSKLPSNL
Description: [drawing 92] i.e. 4-[5-[3-Chloro-5-(trifluoromethoxy) phenyl]-1-(pyridin-3-yl)-1H-pyrazol-3-yl]-5,6-dihydro-7H-pyrrolo[3,4-d]pyrimidin-7-one, was tested for its effects on human Nav1.5, Cav1.2, Kv1.5, and HCN4 currents recorded from stably transfected CHO cells. The effect of four concentrations of this compound on these currents was investigated.
The whole-cell patch-clamp technique was used to investigate the effect of Compound A on the currents of Nav1.5, Kv1.5, Cav1.2 and HCN4 channels, expressed in CHO cells (ATCC, CCL-61). Compound A was tested at concentrations of 200 nM, 600 nM, 2000 nM and 6000 nM. For all ion channels 0.1% DMSO was used as vehicle and ZD7288 as suitable blockers were applied to assure accuracy of the method. The selection antibiotics can be dervied from the Table below:
Concentrations of 200 nM, 600 nM, 2000 nM and 6000 nM of Compound A were tested. […]
The 35 mm culture dishes upon which cells were seeded at a density allowing single cells to be recorded were placed on the dish holder of the microscope and continuously perfused (at approximately 1 mL/min) with the bath solution described in section 4.7. […]
As soon as a stable seal could be established outward tail currents were measured upon pulses described in the Table below: […]
Values in Ampere (A) of the peak amplitudes of outward tail currents were generated for each voltage step. […] The recorded current amplitudes at the steady state level of current inhibition were compared to those from control conditions measured in the pre-treatment phase of the same cell. The amount of current block was calculated as percentage of control. To determine whether the observed current inhibition was due to Compound A-interaction with the respective ion channel or due to current rundown, these residual currents were compared to those measured in vehicle treated cells. Data from at least two individual experiments were collected and the corresponding mean values and standard deviations were calculated. […]

Structure (SMILES): O=C1NCc2c1ncnc2-c1cc(-c2cc(Cl)cc(OC(F)(F)F)c2)n(-c2cccnc2)n1 [Compound A, 4-[5-[3-Chloro-5-(trifluoromethoxy)phenyl]-1-(pyridin-3-yl)-1H-pyrazol-3-yl]-5,6-dihydro-7H-pyrrolo[3,4-d]pyrimidin-7-one]
- solubility ([1]; pH 7.4, aqueous buffer): 50 to 70 µg/mL (≈ 106 to 148 µM)
- solubility ([1]; simulated gastric fluid, pH 2.0): 400 µg/mL (≈ 846 µM)
- Solubility (test item description) ([1]; description of the batch used in Example 3): soluble in water
- solubility in commonly used pharmaceutical excipients ([1]; oils, cosolvents, surfactants): very low solubility
- AUC(0-inf) [2]: 297 µg·h/mL
- reduction of the current amplitude (HCN4) ([3]; at ≤ 6 µM): more than 30%
- Hill coefficient (HCN4) ([3]; stably transfected CHO cells): 1.15
- IC50 ([3]; stably transfected CHO cells, 200, 600, 2000, 6000 nM tested): 879 nM
